Data as given in patent US20070264679A1, “Method for analyzing the activity of lipoxygenase using a water-soluble substrate” (Chungnam National University Industry Collaboration …, priority 2006, published 2007).

Assays:
[1] = biological target: T1, soybean LOX-1 (Glycine max, UniProt P08170); experiment: Kinetics of oxygenation of arachidonic acid or arachidonoyl-lysophospholipids by soybean LOX-1; assay type: biochemical; conditions: soybean LOX-1 2.5 units/ml; for Vm: 50 mM borax buffer pH 9.0, unit = one nanomole conjugated diene per min
T1 construct: purchased Sigma-Aldrich Corp (St. Louis, Mo., USA) lipoxidase Type I-B
T1 sequence (P08170 1-839): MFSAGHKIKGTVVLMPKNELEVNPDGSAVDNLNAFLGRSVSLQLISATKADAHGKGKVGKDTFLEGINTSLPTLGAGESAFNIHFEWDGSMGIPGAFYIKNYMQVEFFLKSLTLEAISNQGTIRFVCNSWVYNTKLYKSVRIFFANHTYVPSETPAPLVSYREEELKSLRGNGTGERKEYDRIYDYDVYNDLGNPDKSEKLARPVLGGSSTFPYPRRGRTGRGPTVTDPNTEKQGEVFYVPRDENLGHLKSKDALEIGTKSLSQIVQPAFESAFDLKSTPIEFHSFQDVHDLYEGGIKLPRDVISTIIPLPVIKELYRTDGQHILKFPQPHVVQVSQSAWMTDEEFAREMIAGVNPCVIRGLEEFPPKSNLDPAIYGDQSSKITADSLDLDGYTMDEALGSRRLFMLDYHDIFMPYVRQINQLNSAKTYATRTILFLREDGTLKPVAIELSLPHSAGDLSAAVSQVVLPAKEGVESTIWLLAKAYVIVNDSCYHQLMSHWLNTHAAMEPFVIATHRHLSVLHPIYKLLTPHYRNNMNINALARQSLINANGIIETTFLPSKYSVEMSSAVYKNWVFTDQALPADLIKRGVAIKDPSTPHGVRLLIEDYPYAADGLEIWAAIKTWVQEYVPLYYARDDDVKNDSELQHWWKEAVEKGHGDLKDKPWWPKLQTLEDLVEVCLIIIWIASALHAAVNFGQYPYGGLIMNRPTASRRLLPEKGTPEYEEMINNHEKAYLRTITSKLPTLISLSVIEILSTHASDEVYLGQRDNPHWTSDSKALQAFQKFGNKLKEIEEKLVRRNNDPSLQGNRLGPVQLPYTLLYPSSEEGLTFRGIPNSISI
Method: (§1) Activities of various LOXs were monitored by measuring the increase in absorbance at 234 nm due to the formation of hydroperoxide (ε234=25,000 M^−1 cm^−1) at 25° C. as described before (Smith et al, J. Biol. Chem. 247 (1972) 1038-1047). One unit is defined as the amount of LOXs that can produce one nanomole of conjugated diene per min. The reaction mixture (500 μl) included reticulocyte LOX (2 units/ml) in 50 mM phosphate buffer (pH 7.4), porcine leukocyte LOX (1 unit/ml) in 100 mM phosphate buffer (pH 7.5) containing 5 mM EDTA and 0.03% Tween 20, or soybean LOX-1 (2.5 units/ml) in 50 mM borax buffer (pH 9.0) at 25° C. The reactions were started by including each substrate (100 μM) into the above reaction mixture.
(§2) Reticulocyte LOX (2 units/ml), leukocyte LOX (1 units/ml) or soybean LOX-1 (2.5 units/ml) was incubated with each arachidonoyl derivative substrate of various concentrations as described above. The values of kinetic parameters were obtained according to Lineweaver Burke plot analyses as described before (Barroso et al, J. Chromatogr. B. Analyt. Technol. Biomed. Life. Sci. 814 (2005) 21-28).

[2] = biological target: T2, Leukocyte 12-lipoxygenase (leukocyte LOX) (Sus scrofa, UniProt P16469); experiment: Kinetics of oxygenation of arachidonic acid or arachidonoyl-lysophospholipids by leukocyte LOX; assay type: biochemical, porcine; conditions: leukocyte LOX 1 unit/ml, 100 mM phosphate buffer pH 7.5, 5 mM EDTA; for Vm: 0.03% Tween 20
T2 construct: purchased Cayman Chemical Co. (Ann Arbor, Mich., USA)
T2 sequence (P16469 1-663): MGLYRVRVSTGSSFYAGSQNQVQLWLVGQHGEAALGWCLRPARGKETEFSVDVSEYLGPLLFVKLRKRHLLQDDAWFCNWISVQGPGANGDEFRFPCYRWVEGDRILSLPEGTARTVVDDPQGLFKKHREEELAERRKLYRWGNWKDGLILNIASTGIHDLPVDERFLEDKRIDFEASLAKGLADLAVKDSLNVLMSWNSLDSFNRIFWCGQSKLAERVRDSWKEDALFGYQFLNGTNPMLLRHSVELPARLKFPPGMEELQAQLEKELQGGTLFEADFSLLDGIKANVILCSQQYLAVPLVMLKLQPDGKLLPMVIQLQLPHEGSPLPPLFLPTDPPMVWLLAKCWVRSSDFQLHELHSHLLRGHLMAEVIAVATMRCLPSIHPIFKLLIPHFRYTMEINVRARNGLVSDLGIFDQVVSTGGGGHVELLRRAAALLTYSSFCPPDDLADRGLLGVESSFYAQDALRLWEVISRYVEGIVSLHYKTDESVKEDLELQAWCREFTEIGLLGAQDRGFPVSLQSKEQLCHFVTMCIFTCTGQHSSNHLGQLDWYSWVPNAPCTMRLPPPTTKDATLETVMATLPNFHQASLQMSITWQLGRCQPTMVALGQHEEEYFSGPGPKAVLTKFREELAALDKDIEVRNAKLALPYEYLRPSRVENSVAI
Method: as §1, §2

[3] = biological target: T3, Rabbit reticulocyte 15-lipoxygenase (reticulocyte LOX) (Oryctolagus cuniculus, UniProt P12530); experiment: Oxygenation of arachidonoyl lysophospholipids by reticulocyte LOX; assay type: biochemical; conditions: reticulocyte LOX 2 units/ml, 50 mM phosphate buffer pH 7.4
T3 construct: purchased Biomol Inc. (Plymouth Meeting, Pa., USA)
T3 sequence (P12530 1-663): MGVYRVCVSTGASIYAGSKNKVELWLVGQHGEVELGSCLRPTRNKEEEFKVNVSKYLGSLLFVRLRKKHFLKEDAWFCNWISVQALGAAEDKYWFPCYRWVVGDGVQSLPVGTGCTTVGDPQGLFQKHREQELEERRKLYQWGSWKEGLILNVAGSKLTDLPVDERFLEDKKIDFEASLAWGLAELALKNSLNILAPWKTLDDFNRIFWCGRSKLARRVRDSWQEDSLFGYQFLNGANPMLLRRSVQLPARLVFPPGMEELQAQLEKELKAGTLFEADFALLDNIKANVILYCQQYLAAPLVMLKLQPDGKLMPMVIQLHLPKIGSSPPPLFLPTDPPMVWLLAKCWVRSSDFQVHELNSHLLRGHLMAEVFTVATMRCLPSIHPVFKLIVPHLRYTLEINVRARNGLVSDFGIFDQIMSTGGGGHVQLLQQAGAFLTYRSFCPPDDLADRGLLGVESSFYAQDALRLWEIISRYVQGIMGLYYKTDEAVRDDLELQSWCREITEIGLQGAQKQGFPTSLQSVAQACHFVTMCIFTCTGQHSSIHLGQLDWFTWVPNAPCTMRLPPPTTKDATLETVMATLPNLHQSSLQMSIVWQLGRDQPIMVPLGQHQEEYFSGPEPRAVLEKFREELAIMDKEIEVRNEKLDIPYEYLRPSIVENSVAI
Method: as §1, §2
It is noteworthy that the efficacy of arachidonoyl-lysoPC as a substrate for leukocyte LOX was approximately 10-fold greater than that of arachidonic acid. In an additional study, the oxygenation of arachidonoyl-lysoPC or arachidonoyl-lysoPA by reticulocyte LOX was examined. […]

[4] = biological target: T4, Reticulocyte LOX (Oryctolagus cuniculus, UniProt P12530); experiment: Kinetics of oxygenation of linoleoylated substrates by reticulocyte LOX; assay type: biochemical, Rabbit; conditions: reticulocyte LOX 8.2 units/ml, 50 mM phosphate buffer pH 7.4, 25° C.
T4 construct: purchased Biomol Inc. (Plymouth Meeting, Pa., USA)
T4 sequence (P12530 1-663): T3 sequence (P12530 1-663)
Excerpt: Data were expressed as means ±S.D. of results from at least three independent experiments.

[5] = biological target: T5, lipoxygenase (Glycine max, UniProt P08170); conditions: Perez-Gilabert et al. 1998; cited from earlier work
T5 sequence (P08170 1-839): T1 sequence (P08170 1-839)

[6] = biological target: T1, soybean LOX-1; experiment: Kinetics of oxygenation of docosahexaenoic acid derivatives by soybean LOX-1; assay type: biochemical; conditions: soybean LOX-1 2.5 units/ml, 50 mM borax buffer pH 9.0, 25° C.
Method: Soybean LOX-1 (2.5 units/ml) was incubated with docosahexaenoyl-lysoPC, didocosahexaenoyl-lysoPC or docosahexaenoic acid of various concentrations in 500 μl of 50 mM borax buffer (pH 9.0) at 25° C. Values were expressed as means ±S.D. of results from at least three independent experiments.

[7] = biological target: T6, Porcine leukocyte LOX (Sus scrofa, UniProt P16469); experiment: Kinetics of oxygenation of docosahexaenoyl-lysoPC or docosahexaenoic acid by leukocyte LOX; assay type: biochemical; conditions: porcine leukocyte LOX 2 units/ml, 100 mM phosphate buffer pH 7.4, 5 mM EDTA
T6 construct: purchased Cayman Chemical Co. (Ann Arbor, Mich., USA)
T6 sequence (P16469 1-663): T2 sequence (P16469 1-663)
Method: Porcine leukocyte LOX (2 units/ml) was incubated with each substrate docosahexaenoyl-lysoPC or docosahexaenoic acid of various concentrations in 500 μl of 100 mM phosphate buffer (pH 7.4) containing 5 mM EDTA and 0.03% Tween 20 at 25° C.

CCCCC/C=C\C/C=C\C/C=C\C/C=C\CCCC(=O)OCC(O)COP(=O)(O)O (centres unmarked) [Arachidonoyl-lysoPA, 1-arachidonoyl lysophosphatidic acid]
Km ([1]; 50 mM borax buffer pH 9.0, 25° C.): 15.4 µM
Vm [1]: 147.8 ± 2.3 units/μg
Vm ([1]; listed as arachidonoyl-lysoPA): 147.8 units/μg
Vm [2]: 33.5 ± 2.9 units/mg
Km ([2]; 0.03% Tween 20, 25° C.): 8.6 µM
Vm ([2]; listed as arachidonoyl-lysoPA): 33.5 units/mg
Vm/Km value in reticulocyte LOX-catalyzed oxygenation compared with arachidonic acid [3]: somewhat greater than that of arachidonic acid

CCCCC/C=C\C/C=C\CCCCCCCC(=O)OC[C@H](COP(=O)([O-])OCC[N+](C)(C)C)OC(=O)CCCCCCC/C=C\C/C=C\CCCCC [Dilinoleoyl-PC, Dilinoleoyl phosphatidylcholine]
Vm [4]: 646 ± 20 units/mg
Km ([4]; substrate 3-100 μM): 71.7 ± 6.9 µM
lipoxygenation rate relative to linoleic acid (times slower) [5]: about 4 times

CC/C=C\C/C=C\C/C=C\C/C=C\C/C=C\C/C=C\CCC(=O)OCC(O)COP(=O)([O-])OCC[N+](C)(C)C (centres unmarked) [Docosahexaenoyl-lysoPC, 1-docosahexenoyl lysophosphatidylcholine]
Km [6]: 2200 ± 600 nM
Vm [6]: 104.2 ± 5.2 units/μg
Vm ([7]; 0.03% Tween 20): 77.2 ± 2.8 units/mg
Km ([7]; 0.03% Tween 20, 25° C.): 3.4 ± 1.8 µM
